Values of other authors in article PMC8966651, “PKPD Modeling of the Inoculum Effect of Acinetobacter baumannii on Polymyxin B in vivo” (Frontiers in Pharmacology, 2022).
Where two headings read alike, the source gives them in different places.

Legend:
E. coli [1] = conditions: cited from earlier work; for E. coli MICs at initial inoculum 10^7 CFU/ml compared to 10^5 CFU/ml: in vitro
Text: The clinical relevance of in vitro IE has been questioned in previous studies ([Maglio et al., 2004]; [Maglio et al., 2005]; [Fantin et al., 2019]).

E. coli [2] = conditions: murine thigh infection model; ref de Araujo et al., 2011; cited from earlier work
Text: An innovative aspect of this study was the refinement of a PKPD model, based on the model developed after in vitro TK experiments conducted with A. baumannii and PMB ([Akrong et al., 2021]). […] The different growth behavior between in vitro and in vivo has been associated in literature ...

A. baumannii = conditions: initial inoculum of A. baumannii increased from 10^7 to 10^8 CFU/lung; ref Lin et al., 2018; cited from earlier work
Text: Yet the IE of A. baumannii on polymyxins in vivo remains to be investigated. […] But IE was only investigated on rare occasions in vivo, with antibiotics such as marbofloxacin ([Ferran et al., 2009]), piperacillin-tazobatam ([Harada et al., 2014]), ertapenem ([Maglio et al., 2005]), meropenem ([Mizunaga et al., 2005]) or colistin ([Fantin et al., 2019]) against various Gram-negative pathogens such as E. coli, K. pneumoniae ...

Question: What does the source list for `CO/N=C(\C(=O)N[C@@H]1C(=O)N2C(C(=O)[O-])=C(C[N+]3(C)CCCC3)CS[C@H]12)c1csc(N)n1` [cefepime]?
Answer: E. coli MICs at initial inoculum 10^7 CFU/ml compared to 10^5 CFU/ml (E. coli [1]; ref Maglio et al., 2004): elevations of E. coli MICs; inoculum effect (IE) in vivo (E. coli [1]; neutropenic mouse thigh infection model, ref Maglio et al., 2004): no IE was observed in vivo

Question: With `C[C@@H](O)[C@H]1C(=O)N2C(C(=O)O)=C(S[C@@H]3CN[C@H](C(=O)Nc4cccc(C(=O)O)c4)C3)[C@H](C)[C@H]12` [ertapenem] as the compound, how does the “E. coli MICs at initial inoculum 10^7 CFU/ml compared to 10^5 CFU/ml” value (E. coli [1]; ref Maglio et al., 2005) read?
Answer: Its value is “elevations of E. coli MICs”.

Question: And the “inoculum effect (IE) in vivo” value (E. coli [1]; neutropenic mouse thigh infection model, ref Maglio et al., 2005)?
Answer: The value was “no IE was observed in vivo”.

Question: Which “maximum killing effect in vivo as compared to in vitro” value (E. coli [2]) does the source give for `CCN1CCN(C(=O)N[C@@H](C(=O)N[C@@H]2C(=O)N3[C@@H]2SC(C)(C)[C@@H]3C(=O)O)c2ccccc2)C(=O)C1=O` [piperacillin] here?
Answer: Its value is “two times smaller”.

Question: Which results are given for colistin?
Answer: inoculum effect (IE) in vivo (E. coli [1]; mice infected with E. coli, ref Fantin et al., 2019): observed an in vivo IE; efficacy of nebulized colistin with increasing inoculum (A. baumannii): decrease in the efficacy
